A short description of data set [1]: in vivo metabolism study, human (circulating and excreted metabolites). The source says: (§1) The compound 5,8,14-triazatetracyclo[10.3.1.0^2,110.0^4,9]-hexadeca-2(11),3,5,7,9-pentaene has also been studied in vivo (rat, monkey, mouse, and human). Metabolite structures are described in Scheme I below.
(§2) The N-carbamoyl glucuronide represents an unusual, albeit not unprecedented metabolite that arises via association of carbon dioxide with the secondary amine followed by glucuronidation. […] The only excreted metabolites in human were the hydroxyquinoxaline metabolite (2.9% of dose): [drawing 17] and N-carbamoyl glucuronide (3.6% of dose).

Data set [2] is described as follows: in vivo metabolism study, preclinical species.
Source text: as §1, §2

The nature of data set [3]: biotransformation in liver microsomes. The format is in vitro ADME. The conditions noted are these: bicarbonate buffer, CO2 atmosphere, UDPGA. The text has this:
A number of studies have been conducted on precursor compounds to those of formula I of the present invention. In particular, studies have been carried out on 5,8,14-triazatetracyclo[10.3.1.0^2,110.0^4,9]-hexadeca-2(11),3,5,7,9-pentaene: [drawing 12] Means of the synthesis of this compound may be found International Patent Publication No. WO 99/35131 and WO 01/62736.
In general terms: Microsomes from liver hold many membrane-bound enzymes, among them those of drug oxidation.

On to `Oc1cnc2cc3c(cc2n1)C1CNCC3C1` (stereo not drawn) [hydroxyquinoxaline metabolite], for which, in data set [1] (in vivo), the “excreted metabolite in human” value is recorded as 2.9 % of dose.

In the case of `O=CN1CC2CC(C1)c1cc3nccnc3cc12` [N-formyl], the “metabolites in human circulation” value in data set [1] was “Metabolites in human circulation included”.

As to `O=C(O)C1OC(OC(=O)N2CC3CC(C2)c2cc4nccnc4cc23)C(O)C(O)C1O` (stereo not drawn) [N-carbamoyl glucuronide], the “metabolites in human circulation” value in data set [1] is recorded as “Metabolites in human circulation included”. Also, the “excreted metabolite in human” value in data set [1] (after 5,8,14-triazatetracyclo[10.3.1.0^2,110.0^4,9]-hexadeca-2(11),3,5,7,9-pentaene) is 3.6 % of dose. In data set [2], the “metabolite present in rat and monkey” value is “present in rat and monkey”.

Turning to `c1cnc2cc3c(cc2n1)C1CNCC3C1` [5,8,14-triazatetracyclo[10.3.1.0^2,110.0^4,9]-hexadeca-2(11),3,5,7,9-pentaene], in data set [3], the “biotransformation in liver microsomes” value is “underwent N-carbamoyl glucuronidation”.
